Assay results published in the supplement of paper PMC10307832.

Assays:
Test in all cases: relative viability (nuclei count vs DMSO), 5 days (fraction); higher = more cells survive
[1] = compound: C1CN(CCN1)C2=CC=C(C=C2)C3=CN4C(=C(C=N4)C5=CC=NC6=CC=CC=C56)N=C3 [DM3189] + Cc1cc(Nc2cc(N3CCN(C)CC3)nc(Sc3ccc(NC(=O)C4CC4)cc3)n2)n[nH]1 [Tozasertib] (partner 0.1 µM)
Procedure, shortened: (§1)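 One day after seeding in 1536-well plates, lung cancer cell lines were dosed by pin tool. Dosing was either single-drug or a fixed anchor-drug dose plus five library-drug doses (not always all listed) in √10 steps. After 5 days, nuclei were stained in one fix-and-stain step and counted on 4× images, and relative viability is the nuclei count of treated wells over that of vehicle wells, given as the median of duplicate plates.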

[2] = compound: C1CN(CCN1)C2=CC=C(C=C2)C3=CN4C(=C(C=N4)C5=CC=NC6=CC=CC=C56)N=C3 [DM3189] + Cc1nc(NC(=O)N2CCC[C@H]2C(N)=O)sc1-c1ccnc(C(C)(C)C(F)(F)F)c1 [Alpelisib] (partner 2 µM)
Procedure, shortened: as §1

[3] = compound: C1CN(CCN1)C2=CC=C(C=C2)C3=CN4C(=C(C=N4)C5=CC=NC6=CC=CC=C56)N=C3 [DM3189] + N=C(N)NC(=N)NCCc1ccccc1 [Phenformin] (partner 250 µM)
Procedure, shortened: as §1

[4] = compound: C1CN(CCN1)C2=CC=C(C=C2)C3=CN4C(=C(C=N4)C5=CC=NC6=CC=CC=C56)N=C3 [DM3189] + O=C(CCCCCCC(=O)Nc1ccccc1)NO [Vorinostat] (partner 1 µM)
Procedure, shortened: as §1

[5] = compound: C1CN(CCN1)C2=CC=C(C=C2)C3=CN4C(=C(C=N4)C5=CC=NC6=CC=CC=C56)N=C3 [DM3189] + CS(=O)(=O)N1CCN(Cc2cc3nc(-c4cccc5[nH]ncc45)nc(N4CCOCC4)c3s2)CC1 [Pictilisib] (partner 1 µM)
Procedure, shortened: as §1

Row | Cell Line | relative viability ([1]; first compound 0.08 µM) | relative viability ([1]; first compound 0.253 µM) | relative viability ([1]; first compound 2.53 µM) | relative viability ([2]; first compound 0.08 µM) | relative viability ([2]; first compound 0.253 µM) | relative viability ([2]; first compound 0.8 µM) | relative viability ([2]; first compound 2.53 µM) | relative viability ([3]; first compound 0.08 µM) | relative viability ([3]; first compound 0.253 µM) | relative viability ([3]; first compound 2.53 µM) | relative viability ([4]; first compound 0.08 µM) | relative viability ([4]; first compound 0.253 µM) | relative viability ([4]; first compound 0.8 µM) | relative viability ([4]; first compound 2.53 µM) | relative viability ([5]; first compound 0.08 µM) | relative viability ([5]; first compound 0.253 µM) | relative viability ([5]; first compound 0.8 µM) | relative viability ([5]; first compound 2.53 µM) | relative viability ([1]; first compound 0.8 µM) | relative viability ([3]; first compound 0.8 µM)
1 | HCC-366 | 0.133 | 0.0982 | 0.0984 | 0.417 | 0.436 | 0.167 | 0.423 | 0.531 | 0.611 | 0.605 | 0.363 | 0.285 | 0.191 | 0.41 | 0.209 | 0.134 | 0.116 | 0.137 | – | –
2 | HCC-827 | 0.376 | 0.36 | 0.377 | 1.1 | 0.888 | 0.847 | 1.03 | 0.443 | 0.444 | 0.431 | 1.04 | 0.821 | 0.876 | 0.681 | 1.19 | 1.06 | 1.02 | 1.15 | 0.354 | 0.441
3 | HOP-62 | 0.31 | 0.347 | 0.356 | 1.29 | 1.11 | 0.773 | 0.911 | 0.691 | 0.722 | 0.682 | 0.566 | 0.702 | 0.573 | 0.66 | 0.86 | 0.562 | 0.572 | 0.836 | 0.389 | 0.6
4 | IA-LM | – | – | – | 1.24 | 0.581 | 0.963 | 1.31 | – | – | – | 0.962 | 1.11 | 1.1 | 1.04 | 0.355 | 0.353 | 0.426 | 0.566 | – | –
5 | LC-2-ad | 0.461 | 0.396 | 0.482 | 0.822 | 0.76 | 0.857 | 0.71 | 0.689 | 0.531 | 0.584 | 0.744 | 0.7 | 0.663 | 0.723 | 0.588 | 0.563 | 0.397 | 0.473 | 0.474 | 0.533
6 | LCLC-97TM1 | 0.229 | 0.171 | 0.188 | 0.163 | 0.239 | 0.219 | 0.185 | 0.459 | 0.364 | 0.399 | 0.73 | 0.647 | 0.687 | 0.751 | 0.186 | 0.151 | 0.159 | 0.13 | 0.182 | 0.433
7 | LCLC-103H | 0.502 | 0.453 | 0.408 | 0.994 | 0.979 | 0.912 | 0.975 | 0.357 | 0.315 | 0.304 | 0.816 | 0.8 | 0.734 | 0.744 | 0.737 | 0.618 | 0.558 | 0.622 | 0.461 | 0.286
8 | LK-2 | 0.183 | 0.187 | 0.166 | 1.05 | 0.6 | 0.445 | 0.564 | 0.29 | 0.26 | 0.237 | 0.292 | 0.273 | 0.213 | 0.227 | 0.378 | 0.278 | 0.262 | 0.306 | 0.185 | 0.228
9 | LOU-NH91 | 0.7 | 0.696 | 0.637 | 0.765 | 0.702 | 0.668 | 0.683 | 0.886 | 0.689 | 0.747 | 1.15 | 0.891 | 0.71 | 0.91 | 0.534 | 0.517 | 0.477 | 0.519 | 0.659 | 0.706
10 | LU99A | 0.284 | 0.242 | 0.307 | 0.468 | 0.422 | – | 0.384 | 0.964 | 0.735 | 0.8 | 0.492 | 0.434 | – | 0.458 | 0.32 | 0.263 | – | 0.316 | – | –
11 | LXF-289 | 0.208 | 0.196 | 0.236 | 1.03 | 1.03 | 1.01 | 1.14 | 0.529 | 0.491 | 0.527 | 0.759 | 0.829 | 0.663 | 0.757 | 0.834 | 0.773 | 0.775 | 0.935 | 0.166 | 0.501
12 | NCI-H23 | 0.291 | 0.389 | 0.376 | 0.768 | 0.741 | 0.675 | 0.699 | 0.865 | 0.761 | 0.826 | 0.668 | 0.51 | 0.564 | 0.539 | 0.637 | 0.462 | 0.385 | 0.442 | 0.296 | 0.643
13 | NCI-H322M | 0.481 | 0.427 | 0.404 | 0.734 | 0.867 | 0.805 | 0.884 | 0.866 | 0.782 | 0.652 | 0.97 | 0.874 | 0.783 | 0.791 | 0.565 | 0.526 | 0.462 | 0.447 | 0.448 | 0.651
14 | NCI-H1563 | – | – | – | 0.909 | 0.896 | 0.949 | 0.839 | 0.722 | 0.602 | 0.631 | – | – | – | – | 0.635 | 0.622 | 0.625 | 0.616 | – | 0.593
15 | NCI-H1650 | 0.322 | 0.362 | 0.377 | – | – | – | – | 0.5 | 0.347 | 0.354 | 0.505 | 0.539 | 0.638 | 0.644 | 0.773 | 0.582 | 0.526 | 0.477 | 0.389 | 0.387
16 | NCI-H1703 | – | – | – | 0.389 | 0.366 | 0.384 | 0.285 | – | – | – | – | – | – | – | 0.28 | 0.205 | 0.257 | 0.257 | – | –
17 | NCI-H1792 | – | – | – | 0.545 | 0.682 | 0.624 | 0.401 | 0.275 | 0.267 | 0.458 | – | – | – | – | 0.228 | 0.248 | 0.165 | 0.271 | – | –
18 | NCI-H2342 | 0.599 | 0.526 | 0.483 | – | – | – | – | 0.625 | 0.594 | 0.498 | 0.702 | 0.692 | 0.843 | 0.668 | – | – | – | – | 0.541 | 0.595
19 | SW 900 | 0.604 | 0.509 | 0.437 | – | – | – | – | 0.599 | 0.465 | 0.568 | 0.469 | – | 0.442 | 0.383 | – | – | – | – | 0.446 | 0.535
